What was measured:
Format in all cases: in vivo, mouse
[1] = system: IFN-γ; test: IFN-γ levels in homogenised colon samples (ELISA); conditions: mdr1a−/− mice
Description: (§1) Following the acclimatisation period, mdr1a^−/− mice with mild and moderate disease scores (mild disease (0-3) was defined by absence of gain or mild body weight loss (<0.5 g) and no other symptoms, whereas moderate disease (4-10) was defined by similar symptoms as a previous group but with soft faeces or greater loss in body weight (>20%) were randomised into 4 groups and dosed subcutaneously (s.c.) with vehicle (water, n=8) or dexamethasone (0.05 mg/kg, n=9; 0.3 mg/kg, n=8 or 2 mg/kg, n=8) daily for 7 days. The 6 mdr1a^+/+ mice received vehicle (water). During the study period, one mouse from the group treated with 0.3 mg/kg dexamethasone was found dead and two were euthanised (one from the vehicle-treated group and one from the group treated with 0.05 mg/kg dexamethasone). At the end of the study all mice were euthanased. The colon and caecum from each mouse was removed and weighed. Each colon was then divided longitudinally so that one section could be processed for histological analysis and the other for cytokine measurement (see below).
(§2) Each individual colon sample was homogenised three times for 30 seconds at 4° C. in 3ml of ice-cold Krebs' solution (Sigma Chemical Co. U.K.). Samples were centrifuged for 15 min at 35,000 g (4° C.) and supernatants were removed. IL-8 and IFN-γ levels were then measured by ELISA kits (R&D systems, U.K.). The detection limits of these kits were 31.2-2000 pg/ml. Protein levels was assayed in supernatants using the method described by Bradford (Bradford, M. (1976) Analyt. Biochem. 72, 248-254), utilising Bradford Reagent (Sigma).
(§3) Data were analysed for the 29 mdr1a^−/− and 6 mdr1a^+/+ mice, which completed the study. Differences between vehicle treated mdr1a^−/− and mdr1a^+/+ mice were analysed using a two sample t-test (assuming equal variance for IFN-γ, growth rate in the acclimatisation period and final weight, and unequal variance for IL-8, colon weight, caecum weight, colon to body weight ratio, caecum to body weight ratio and growth rate during the study period). The effects of dexamethasone treatment were analysed using analysis of variance (ANOVA) allowing for culling group.

[2] = system: colon/rectum of mdr1a^−/− mice; test: Histological grading of colitis severity (score 0-4); conditions: for Colitis severity score graded histologically (Mean ± s.e.m.): scale 0-4
Description: as §1
The animals were necropsied. The colon/rectum and caecum were weighed and colon/rectum, caecum, ileum, jejunum, duodenum, stomach, mesenteric nodes, thymus, kidney, spleen were sampled and fixed in 10% buffered formalin solution. The colon/rectum and ileum were prepared in a “Swiss roll” technique (Moolenbeek, C. & Ruitenberg E. J. (1981) Lab Anim 15(1):57-9) to evaluate their whole longitudinal section one slide. Tissues were processed routinely in an automatic tissue processor, embedded in paraffin, sectioned at 4-6 μm, stained with hematoxylin and eosin (HE), and examined histologically. The colitis was graded from 0 (no significant findings) to 4 (severe proliferative and ulcerative inflammation) according to the extent of the findings and severity of mucosal changes (Table 2) by a blinded observer. In addition, the mucosal height of the whole colon/rectum were assessed about every 100 μm with a standard interactive microcomputer-assisted image analysis system.
Colitis severity score is an ordered categorical measure graded on a scale of 0-4. This type of data is generally analysed using a proportional odds model, however due to the small sample size this was not appropriate and ANOVA was used. This makes the assumption of having normally distributed data, which although we had categorical data, seemed to hold approximately true. All analysis was carried out using Genstat 5 Release 4.2 for Windows.

[3] = system: mdr1a^−/− mice; test: mdr1a−/− mice given chlorinated drinking water as IBD model: clinical signs, body weight, colon and caecum weights; conditions: for Body weight (Mean ± s.e.m.): end of study; for Growth rate (Mean ± s.e.m.): over study period
Excerpt: Forty male mdr1a^−/− mice (strain FVB.129P2-Pgy3^tm1 N7) and six control male mice (mdr1a^+/+) from the same genetic background (FVB; strain FVB/NTac) (6-8 weeks old) were obtained from Taconic Farms (U.S.A). Mice were individually housed in solid bottom cages containing autoclaved Bee Kay bedding from Bantin & Kingman (U.K.) with the addition of Envirodri, a nesting material made from virgin paper, free from deodorising chemicals, to provide enrichment. Mice were fed on RAT & Mouse No 1 maintenance diet (RMI (E) SQC) (Special Diet services, Witham, Essex, U.K.) on arrival at Pfizer. For this study we used bottled water and Klortabs (5 ppm) (Arrowmight Biosciences, U.K.) to eliminate the possibility of water borne spreading of bacterial pathogens and to provide a water supply with constant levels of chlorine. Water was changed twice a week. This study was carried out in accordance with UK legislation and approved by Pfizer's internal ethical review process.
Prior to commencing the study, all mice (40 mdr1a^−/− and 6 mdr1a^+/+) acclimatised for 14 days. […] A scoring system was devised with different weightings for different clinical signs (Table 1). The intention was that the score should reflect the severity of the colitis.
as §1, §3

[4] = system: IL-8; test: IL-8 levels in homogenised colon samples (ELISA); conditions: mdr1a−/− mice
Description: as §1, §2, §3

[5] = 0.05 mg/kg s.c. daily for 7 days
[6] = 0.3 mg/kg s.c. daily for 7 days
[7] = lower doses (0.05 and 0.3 mg/kg s.c.)

C[C@@H]1C[C@H]2[C@@H]3CCC4=CC(=O)C=C[C@]4(C)[C@@]3(F)[C@@H](O)C[C@]2(C)[C@@]1(O)C(=O)CO [dexamethasone]
IFN-γ level in homogenised colon (Mean ± s.e.m) [1, 5]: 177 ± 32.6 pg/mg protein | IFN-γ level in homogenised colon (Mean ± s.e.m) [1, 6]: 169 ± 32.6 pg/mg protein | IFN-γ level in homogenised colon (Mean ± s.e.m) ([1]; 2 mg/kg s.c. daily for 7 days): 100 ± 30.5 pg/mg protein | Effect on IFN-γ levels in homogenised colons ([1]; any of the doses used): no effect | Colitis severity score graded histologically (Mean ± s.e.m.) [2, 5]: 4.0 ± 0.42 | Colitis severity score, difference from vehicle ([2]; 0.05 mg/kg s.c., p >0.05): 0.3 | Colitis severity score graded histologically (Mean ± s.e.m.) [2, 6]: 3.1 ± 0.42 | Colitis severity score, difference from vehicle ([2]; 0.3 mg/kg s.c., p >0.05): −0.6 | Colitis severity score graded histologically (Mean ± s.e.m.) ([2]; 2 mg/kg s.c. daily for 7 days): 2.4 ± 0.39 | Colitis severity score, difference from vehicle ([2]; 2 mg/kg s.c., p <0.05): −1.3 | Clinical score (Mean ± s.e.m.) [3, 5]: 56 ± 8.9 | Body weight (Mean ± s.e.m.) [3, 5]: 22.2 ± 0.77 g | Growth rate (Mean ± s.e.m.) [3, 5]: -0.427 ± 0.099 g/day | Clinical score (Mean ± s.e.m.) [3, 6]: 37 ± 8.9 | Body weight (Mean ± s.e.m.) [3, 6]: 22.6 ± 0.77 g | Growth rate (Mean ± s.e.m.) [3, 6]: -0.260 ± 0.099 g/day | Clinical score (Mean ± s.e.m.) ([3]; 2 mg/kg s.c. daily for 7 days): 32 ± 8.3 | Body weight (Mean ± s.e.m.) ([3]; 2 mg/kg s.c. daily for 7 days): 22.7 ± 0.72 g | Growth rate (Mean ± s.e.m.) ([3]; 2 mg/kg s.c. daily for 7 days): -0.271 ± 0.093 g/day | Colon to body weight ratio ([3]; 2 mg/kg s.c. daily for 7 days, vehicle 3.0±0.28, P=0.017): 2.1±0.26 | Absolute colon weight ([3]; 2 mg/kg s.c. daily for 7 days, vehicle 691±52 mg, P<0.01): 456 ± 48 mg | Effect on overall clinical scores of colitis ([3]; 0.05-2 mg/kg s.c.): no effect | Effect on final body weight ([3]; any of the doses used): no significant effect | Effect on growth rate ([3]; any of the doses used): no significant effect | Effect on absolute colon weight vs. vehicle [3, 7]: no significant effect | Effect on colon to body weight ratio vs. vehicle [3, 7]: no significant effect | IL-8 level in homogenised colon (Mean ± s.e.m) [4, 5]: 317 ± 65.7 pg/mg protein | IL-8 level in homogenised colon (Mean ± s.e.m) [4, 6]: 264 ± 65.7 pg/mg protein | IL-8 level in homogenised colon (Mean ± s.e.m) ([4]; 2 mg/kg s.c. daily for 7 days): 220 ± 61.5 pg/mg protein | Effect on IL-8 levels in homogenised colons ([4]; any of the doses used): no effect

From patent US20040219228A1, “Animal model for inflammatory bowel disease” (Pfizer Inc, priority 2003, published 2004)
